Results reported in publication PMC8318231, “Rate-of-Kill (RoK) assays to triage large compound sets for Chagas disease drug discovery: Application to GSK Chagas Box” (PLoS Neglected Tropical Diseases, 2021).
Like-named read-outs stand apart in the source and are kept apart here.

Experiments:
[1] = tested on: T. cruzi Tulahuen trypomastigotes; experiment: T. cruzi trypomastigote assay (Cell Titer-Glo viability, ATP luminescence); assay type: cell-based, Trypanosoma cruzi; details: for activity in trypomastigotes assay (in words): 48 and 72 hours; for IC50: Trypanosoma cruzi, TULAHUEN; for Trypomastigotes pIC50 48 hours: 48 hours incubation; for Trypomastigotes pIC50 48 hours / Trypomastigotes pIC50 72 hours: pIC50 = -log10 IC50 in molar units; for Trypomastigotes pIC50 72 hours: 72 hours incubation; for 72 pIC50 (trypomastigotes, raw data of Fig 1D): 72 hours, plotted values, censored values given without sign; for 48 pIC50 / 72 pIC50: trypomastigote assay
Procedure, shortened: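 Compounds were tested in dose response or once at a final 5 μM against 5 × 10^4 trypomastigotes per well (DMEM, 2% FBS), collected on days 5–8 from LLC-MK2 infected cultures. ATP luminescence via CellTiter-Glo reports live parasites; DMSO defines 0% and cell-free wells 100% effect.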

[2] = tested on: T. cruzi intracellular amastigotes in H9c2 cells; experiment: Rate-of-Kill (RoK) high-content imaging assay, amastigotes per cell (AM/CELL) and curve descriptors; assay type: cell-based, Trypanosoma cruzi; set-up: key to ME_24h / ME_48h / ME_72h: % reduction in parasite burden (cidal response); t50pct_MCC50 / t50pct_Cmax: unit not given here; details: for ME_24h: 24h; for ME_48h: 48h; for ME_72h: 72h; for t50%_Cmax / tlag_Cmax / t50pct_Cmax: at Cmax; for ME_24h (%): maximum effect at 24 h; for ME_24h (%) / ME_48h (%) / ME_72h (%): RoK assay; for ME_48h (%): maximum effect at 48 h; for ME_72h (%): maximum effect at 72 h
Procedure, shortened: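 Readouts at each time point are amastigotes per cell and host nuclei count (cytotoxicity), from DRAQ5 high-content imaging. Infection: trypomastigotes on H9c2 at MOI 8 for 18 h. Dosing was 5 μM single point or 11 points, 1/3 steps from 50 μM. Effect scaled between 4 h infected and uninfected controls.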

[3] = tested on: T. cruzi intracellular amastigotes in H9c2 cells; experiment: RoK combination assay with BNZ; assay type: cell-based, Trypanosoma cruzi; details: 50 μM BNZ
Protocol: The assay was performed following the same experimental procedure mentioned above in the RoK assay. The infected H9c2 cells were treated with final 10 and 50 μM concentrations of BNZ and DMSO before being dispensed into the plates containing the compounds. For the combination with 50 μM BNZ, two plates were incubated for 4 and 24 hours respectively before being fixed. For the combinations with 10 μM BNZ and with DMSO, four plates for each condition were incubated for 4, 24, 48 and 72 hours before being fixed.

TcCYP51 = details: cited from earlier work; for CYP51 pIC50: formerly reported
[4] = set-up: method as in PMID 25805302; details: cited from earlier work
[5] = maximum percentage of parasite burden reduction reached by any concentration, 24 hours

O=C(Cn1ccnc1[N+](=O)[O-])NCc1ccccc1 [Benznidazole, benznidazole, reference compound]
activity in trypomastigotes assay (in words) [1]: active
IC50 ([1]; 48 h, read-out: Trypomastigotes pIC50 48 hours (converted)): 6.31 µM
IC50 ([1]; 72 h, read-out: Trypomastigotes pIC50 72 hours (converted)): 5.01 µM
pIC50 versus trypomastigotes ([1]; invariable at the two incubation times tested): 5.3
ME (maximum effect) in RoK assay (in words) [2]: higher ME values close to 100%
tlag (in words) [2]: short t-lag values
ME_24h ([2]; figure 5): 49.8205
ME_48h ([2]; figure 5): 84.8832
ME_72h ([2]; figure 5): 90.745
MCCE (Minimal Compound Concentration with Effect) ([2]; Fig 2C, average, lowest concentration that decreases AUC of AM/CELL versus time by at least 50% vs infected control, listed as BNZ): 3.9 µM
MCC50 (Minimal Cidal Concentration 50%) ([2]; Fig 2C, average, lowest concentration that reduces 50% of the parasite load measured at zero time, listed as BNZ): 31.2 µM
t50pct_MCC50 (t50%_MCC50) ([2]; Fig 2C, average, time to reduce 50% of initial parasite load at MCC50, listed as BNZ): 46.2 h
MCC50 ([2]; RoK curve descriptor): 31.2 µM
MCCE ([2]; RoK curve descriptor): 3.9 µM
AM/CELL NORM ([2]; Time 4, figure 4 A): 14.6109
AM/CELL NORM ([2]; Time 24, figure 4 A): 40.5448
AM/CELL NORM ([2]; Time 48, figure 4 A): 53.9104
AM/CELL NORM ([2]; Time 72, figure 4 A): 66.8038
Emax at 50 µM ([2]; Trypanosoma cruzi, H9c2, BNZ at 50 μM, 48 hours, read-out: maximum effect): 100%
Emax ([2]; Trypanosoma cruzi, H9c2, maximum percentage of parasite burden reduction reached by any concentration, 24 hours, read-out: ME 24h (maximum effect at 24 hours, intracellular amastigotes)): 49.2%
t50%_Cmax [2]: 35.0 h
tlag_Cmax [2]: 5.5 h
t50pct_Cmax ([2]; figure 5): 34
tlag_Cmax ([2]; figure 5): 4
t50%_MCC50 ([2]; at MCC50): 46.2 h
tlag_MCC50 ([2]; at MCC50): 8.6 h
t50pct_MCC50 ([2]; at MCC50, figure 5): 46
tlag_MCC50 ([2]; at MCC50, figure 5): 7.333
MCCE ([2]; figure 5): 4.172
MCC50 ([2]; figure 5, in µM): 33.802
ME_24h (%) [2]: 49.8%
ME_48h (%) [2]: 84.9%
ME_72h (%) [2]: 90.7%
AM/CELL ([3]; no compound 1, 4 hours): 2.023
AM/CELL ([3]; no compound 1, 24 hours): 1.3207
CYP51 mean (TcCYP51; TcCYP51 enzyme inhibition, mean, figure 1B, ref original boxes paper): 4.3
CYP51 pIC50 (TcCYP51): < 4
average time to interruption of treatment [4]: 26.7 days

CCCCNc1nccc(-c2c(-c3ccc(F)cc3)nn3c(N4CCOCC4)cccc23)n1 [TCMDC-143617]
Trypomastigotes pIC50 48 hours [1]: 5.1
Trypomastigotes pIC50 72 hours [1]: < 4.3
ME_24h ([2]; figure 5): -170.943
ME_48h ([2]; figure 5): -538.575
ME_72h ([2]; figure 5): -488.335
MCCE ([2]; RoK curve descriptor): 5.6 µM
AM/CELL NORM ([2]; Time 4, sheet figure 4 A): -16.0226
AM/CELL NORM ([2]; Time 24, sheet figure 4 A): -225.539
AM/CELL NORM ([2]; Time 48, sheet figure 4 A): -1143.86
AM/CELL NORM ([2]; Time 72, sheet figure 4 A): -2417.88
tlag_Cmax [2]: 72.0 h
t50pct_Cmax ([2]; figure 5): 72
tlag_Cmax ([2]; figure 5): 72
t50pct_MCC50 ([2]; at MCC50, figure 5): 72
tlag_MCC50 ([2]; at MCC50, figure 5): 72
MCC50 ([2]; figure 5): 50 µM
MCCE ([2]; figure 5): 5.556
ME_24h (%) [2]: -170.9%
ME_48h (%) [2]: -538.6%
ME_72h (%) [2]: -488.3%
ME 24h (maximum effect at 24 hours, intracellular amastigotes) [2, 5]: -170.943%
CYP51 pIC50 (TcCYP51): < 4

CN(C)CCOc1ccc(N2CCN(S(=O)(=O)c3ccc(Cl)cc3)CC2)cc1 [TCMDC-143622]
Trypomastigotes pIC50 48 hours [1]: < 4.3
Trypomastigotes pIC50 72 hours [1]: < 4.3
72 pIC50 (trypomastigotes, raw data of Fig 1D) [1]: < 4.3
48 pIC50 ([1]; 48 h, figure 1A): < 4.3
72 pIC50 ([1]; 72 h, figure 1A): < 4.3
72 pIC50 ([1]; 72 h, figure 1B): < 4.3
ME_24h ([2]; figure 5): 11.982
ME_48h ([2]; figure 5): 63.0909
ME_72h ([2]; figure 5): 72.2951
MCC50 ([2]; RoK curve descriptor): 1.9 µM
MCCE ([2]; RoK curve descriptor): 1.9 µM
AM/CELL NORM ([2]; Time 4, sheet figure 4 A): 6.264
AM/CELL NORM ([2]; Time 24, sheet figure 4 A): 11.982
AM/CELL NORM ([2]; Time 48, sheet figure 4 A): 63.0909
AM/CELL NORM ([2]; Time 72, sheet figure 4 A): 55.0876
t50%_Cmax [2]: 48.0 h
tlag_Cmax [2]: 4.0 h
t50pct_Cmax ([2]; figure 5): 48
tlag_Cmax ([2]; figure 5): 4
t50%_MCC50 ([2]; at MCC50): 72.0 h
tlag_MCC50 ([2]; at MCC50): 24.0 h
t50pct_MCC50 ([2]; at MCC50, figure 5): 72
tlag_MCC50 ([2]; at MCC50, figure 5): 24
MCCE ([2]; figure 5): 1.852
MCC50 ([2]; figure 5, in µM): 1.852
ME_24h (%) [2]: 12.0%
ME_48h (%) [2]: 63.1%
ME_72h (%) [2]: 72.3%
ME 24h (maximum effect at 24 hours, intracellular amastigotes) [2, 5]: 11.982%
CYP51 pIC50 (TcCYP51): 4.6

CN(C)Cc1ccc(N2CCC(NS(=O)(=O)c3ccc(Cl)cc3)CC2)cc1 [TCMDC-143623]
activity in trypomastigotes assay (in words) [1]: poorly active
Trypomastigotes pIC50 48 hours [1]: 4.5
Trypomastigotes pIC50 72 hours [1]: 4.4
ME (maximum effect) in RoK assay (in words) [2]: positive ME throughout all times
cidality in the RoK assay (in words) [2]: cidal
tlag (in words) [2]: short tlag times
ME_24h ([2]; figure 5): -87.7558
ME_48h ([2]; figure 5): -504.665
ME_72h ([2]; figure 5): -765.031
MCC50 ([2]; RoK curve descriptor): 1.9 µM
MCCE ([2]; RoK curve descriptor): 1.0 µM
AM/CELL NORM ([2]; Time 4, figure 4 A): -0.7307
AM/CELL NORM ([2]; Time 24, figure 4 A): -44.6697
AM/CELL NORM ([2]; Time 48, figure 4 A): 60.0074
AM/CELL NORM ([2]; Time 72, figure 4 A): 92.6225
t50%_Cmax [2]: 60.0 h
tlag_Cmax [2]: 38.0 h
t50pct_Cmax ([2]; figure 5): 60
tlag_Cmax ([2]; figure 5): 38
t50%_MCC50 ([2]; at MCC50): 72.0 h
tlag_MCC50 ([2]; at MCC50): 24.0 h
t50pct_MCC50 ([2]; at MCC50, figure 5): 72
tlag_MCC50 ([2]; at MCC50, figure 5): 48
MCCE ([2]; figure 5): 1.029
MCC50 ([2]; figure 5, in µM): 25.9259
ME_24h (%) [2]: -87.8%
ME_48h (%) [2]: -504.7%
ME_72h (%) [2]: -765.0%
ME 24h (maximum effect at 24 hours, intracellular amastigotes) [2, 5]: 25.2228%
CYP51 pIC50 (TcCYP51): < 4

O=c1[nH]ccc2ccc(-c3ccncc3)cc12 [TCMDC-143631]
Trypomastigotes pIC50 48 hours [1]: < 4.3
Trypomastigotes pIC50 72 hours [1]: < 4.3
72 pIC50 (trypomastigotes, raw data of Fig 1D) [1]: < 4.3
48 pIC50 ([1]; 48 h, figure 1A): < 4.3
72 pIC50 ([1]; 72 h, figure 1A): < 4.3
72 pIC50 ([1]; 72 h, figure 1B): < 4.3
ME_24h ([2]; figure 5): -43.2523
ME_48h ([2]; figure 5): -170.763
ME_72h ([2]; figure 5): 18.409
MCCE ([2]; RoK curve descriptor): 0.6 µM
AM/CELL NORM ([2]; Time 4, sheet figure 4 A): -16.1027
AM/CELL NORM ([2]; Time 24, sheet figure 4 A): -43.2523
AM/CELL NORM ([2]; Time 48, sheet figure 4 A): -202.655
AM/CELL NORM ([2]; Time 72, sheet figure 4 A): 18.409
tlag_Cmax [2]: 48.0 h
t50pct_Cmax ([2]; figure 5): 72
tlag_Cmax ([2]; figure 5): 48
t50pct_MCC50 ([2]; at MCC50, figure 5): 72
tlag_MCC50 ([2]; at MCC50, figure 5): 72
MCC50 ([2]; figure 5): 50 µM
MCCE ([2]; figure 5): 0.6173
ME_24h (%) [2]: -43.3%
ME_48h (%) [2]: -170.8%
ME_72h (%) [2]: 18.4%
ME 24h (maximum effect at 24 hours, intracellular amastigotes) [2, 5]: -43.2523%
CYP51 pIC50 (TcCYP51): 7.8

O=C(O)/C=C\C(=O)O.O=C(c1ccc(OCCCc2cnc[nH]2)cc1)C1CC1 [TCMDC-143632]
Trypomastigotes pIC50 48 hours [1]: < 4.3
Trypomastigotes pIC50 72 hours [1]: < 4.3
72 pIC50 (trypomastigotes, raw data of Fig 1D) [1]: < 4.3
48 pIC50 ([1]; 48 h, figure 1A): < 4.3
72 pIC50 ([1]; 72 h, figure 1A): < 4.3
72 pIC50 ([1]; 72 h, figure 1B): < 4.3
ME_24h ([2]; figure 5): -9.2427
ME_48h ([2]; figure 5): 8.208
ME_72h ([2]; figure 5): 46.1088
MCCE ([2]; RoK curve descriptor): 5.6 µM
AM/CELL NORM ([2]; Time 4, sheet figure 4 A): 10.5519
AM/CELL NORM ([2]; Time 24, sheet figure 4 A): -53.2211
AM/CELL NORM ([2]; Time 48, sheet figure 4 A): -4.213
AM/CELL NORM ([2]; Time 72, sheet figure 4 A): 38.8877
tlag_Cmax [2]: 24.0 h
t50pct_Cmax ([2]; figure 5): 72
tlag_Cmax ([2]; figure 5): 24
t50pct_MCC50 ([2]; at MCC50, figure 5): 72
tlag_MCC50 ([2]; at MCC50, figure 5): 72
MCC50 ([2]; figure 5): 50 µM
MCCE ([2]; figure 5): 5.556
ME_24h (%) [2]: -9.2%
ME_48h (%) [2]: 8.2%
ME_72h (%) [2]: 46.1%
ME 24h (maximum effect at 24 hours, intracellular amastigotes) [2, 5]: -9.2427%
CYP51 pIC50 (TcCYP51): 7.3
